Experimental data: ChEMBL document CHEMBL5325469, “Research progress of STAT3-based dual inhibitors for cancer therapy” (Bioorg Med Chem, 2023)

Assays:
DU-145 = test: Cytotoxicity against human DU-145 cells assessed as inhibition of cell growth incubated for 24 hrs by MTT assay; type: functional, cell-based; settings: DU-145, 24 h
MDA-MB-231 = test: Antiproliferative activity against human MDA-MB-231 cells assessed as inhibition of cell growth; type: functional, cell-based
HCT-116 [1] = test: Antiproliferative activity against human HCT-116 cells assessed as inhibition of cell growth; type: functional, cell-based
Tubulin [2] = test: Inhibition of tubulin polymerization (unknown origin); type: protein-complex assay, Homo sapiens
[3] = target: Signal transducer and activator of transcription 3 (Homo sapiens, UniProt P40763); test: Inhibition of STAT3 phosphorylation (unknown origin)
A549 = test: Antiproliferative activity against human A549 cells assessed as inhibition of cell growth; type: functional, cell-based
CAPAN-1 = test: Antiproliferative activity against human CAPAN-1 cells assessed as inhibition of cell growth incubated for 72 hrs by IncuCyte live-cell imaging analysis; type: functional, cell-based; settings: CAPAN-1, 72 h
Z-138 = test: Antiproliferative activity against human Z138 cells assessed as inhibition of cell growth incubated for 72 hrs by IncuCyte live-cell imaging analysis; type: functional, cell-based; settings: Z-138, 72 h
[4] = Antiproliferative activity against human DND41 cells assessed as inhibition of cell growth incubated for 72 hrs by IncuCyte live-cell imaging analysis; type: functional, cell-based; settings: DND41, 72 h
K562 = test: Antiproliferative activity against human K562 cells assessed as inhibition of cell growth incubated for 72 hrs by IncuCyte live-cell imaging analysis; type: functional, cell-based; settings: K562, 72 h
Tubulin [5] = test: Inhibition of tubulin polymerization (unknown origin) by fluorescence-based tubulin polymerization assay; type: protein-complex assay, Homo sapiens
NCI-H460 = test: Antiproliferative activity against human NCI-H460 cells assessed as inhibition of cell growth incubated for 72 hrs by IncuCyte live-cell imaging analysis; type: functional, cell-based; settings: NCI-H460, 72 h
HL-60 = test: Antiproliferative activity against human HL-60 cells assessed as inhibition of cell growth incubated for 72 hrs by IncuCyte live-cell imaging analysis; type: functional, cell-based; settings: HL-60, 72 h
HCT-116 [6] = test: Antiproliferative activity against human HCT-116 cells assessed as inhibition of cell growth incubated for 72 hrs by IncuCyte live-cell imaging analysis; type: functional, cell-based; settings: HCT-116, 72 h

Chain of Signal transducer and activator of transcription 3 (P40763 whole entry): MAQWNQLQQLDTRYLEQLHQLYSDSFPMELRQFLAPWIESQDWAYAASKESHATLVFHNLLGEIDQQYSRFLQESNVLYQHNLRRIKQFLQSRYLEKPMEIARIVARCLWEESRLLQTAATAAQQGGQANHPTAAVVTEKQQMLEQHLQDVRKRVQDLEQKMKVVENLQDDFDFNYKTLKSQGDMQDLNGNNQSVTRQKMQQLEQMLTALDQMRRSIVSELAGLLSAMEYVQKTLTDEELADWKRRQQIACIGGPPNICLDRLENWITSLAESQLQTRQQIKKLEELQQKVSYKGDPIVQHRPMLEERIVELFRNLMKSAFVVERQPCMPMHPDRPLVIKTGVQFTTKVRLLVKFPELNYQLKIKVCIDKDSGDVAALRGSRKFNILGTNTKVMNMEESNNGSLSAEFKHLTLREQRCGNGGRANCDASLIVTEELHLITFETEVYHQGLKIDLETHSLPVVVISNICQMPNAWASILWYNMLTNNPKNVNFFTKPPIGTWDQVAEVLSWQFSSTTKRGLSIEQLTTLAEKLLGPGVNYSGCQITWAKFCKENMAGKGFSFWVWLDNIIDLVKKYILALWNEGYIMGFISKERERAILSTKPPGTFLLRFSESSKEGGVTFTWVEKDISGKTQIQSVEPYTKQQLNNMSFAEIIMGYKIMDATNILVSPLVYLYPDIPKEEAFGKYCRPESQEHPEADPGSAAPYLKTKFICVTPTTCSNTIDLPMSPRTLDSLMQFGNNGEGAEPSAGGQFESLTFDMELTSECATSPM

In the case of `COc1cccc2c1C(=O)c1c(O)c3c(c(O)c1C2=O)C[C@@](O)(C(=O)CO)C[C@@H]3O[C@H]1C[C@H](N)[C@H](O)[C@H](C)O1` [DOXORUBICIN], the IC50 (DU-145) is reported as greater than 30000 nM.

With `C=CN(c1cccc2ccccc12)S(=O)(=O)c1ccc(OC)cc1` the IC50 (MDA-MB-231) was 2850 nM, the IC50 (HCT-116 [1]) was 3040 nM and the IC50 (Tubulin [2]) was 830 nM. For the same molecule, the IC50 [3] was 6840 nM and the IC50 (A549) was 1350 nM.

For `COC(=O)Nc1ccc(C(=O)Nc2ccccc2OC)c(O)c1`, the IC50 (CAPAN-1) was 1300 nM, the IC50 (Z-138) was 1300 nM and the IC50 [4] was 1300 nM. It also gave an IC50 (K562) of 1300 nM, an IC50 (Tubulin [5]) of 3900 nM and an IC50 (NCI-H460) of 2800 nM. For the same molecule, the IC50 (HL-60) was 1500 nM and the IC50 (HCT-116 [6]) was 1400 nM.
